The target in this test is T1, delF508-CFTR-HRP (Homo sapiens, UniProt P13569, DEL508-508).
T1 construct: expressed in transfected cells
Briefly: Measurement of delF508-CFTR-HRP surface expression in CFBE41o- cells (HRP luminescence).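 On DelF508-CFTR-HRP Amax %: percent efficacy relative to a reference CFTR corrector compound.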 As to conditions: for Emax: CFBE41o-, read-out: DelF508-CFTR-HRP Amax %; for EC50: mean of at least two replicates. The test is classed as cell-based. The text has this: Measurement of delF508-CFTR-HRP Surface Expression in CFBE41o-Cells
This assay quantifies the cell surface expressions of the mutant CFTR channel using an extracellular HRP tag.
A cellular assay was developed to measure surface expression of horseradish peroxidase (HRP) tagged delF508-CFTR in the human bronchial epithelial immortalized CFBE41o-cell line (Phuan, P. W., et al, (2014) Molecular Pharmacology 86:42-51). Specifically, the HRP sequence was inserted into the fourth extracellular loop of delF508-CFTR and stably expressed in CFBE41o-cells. Cells were seeded in 384 well plate at a density of 5000 cells/well and incubated at 37° C. for 12 to 24 hours in medium (Gibco MEM #11095, 10% FBS, 10 mM HEPES, […], 200 μg/mL G418, 3 μg/mL Puromycin). The delF508-CFTR-HRP expression was induced with 500 ng/mL doxycycline (Sigma D-9891, dissolved in H2O and sterile filtered) in medium and the cells were incubated at 37° C. for 48 h. Old medium was removed and fresh medium was added containing 500 ng/mL doxycycline and unknown test compound at required test concentration in DMSO, not exceeding 0.5% final DMSO concentration. The highest concentration tested was 10 μM with a 10-point concentration response curve using a 3-fold dilution. After addition of compounds, the cells were incubated for 24 h at 37° C. On the final day, cells were washed four times in PBS containing 1 mM MgCl2 and 0.1 mM CaCl2. HRP-Substrate (SuperSignal ELISA Pico, Fisher #37069) 20 μl/well was added and the luminescence signal was determined (Viewlux, Perkin Elmer). Light was emitted upon addition of exogenous HRP-Substrate only when delF508-CFTR-HRP reached the cell surface and the HRP tag was accessible to the HRP-Substrate (note: HRP-Substrate cannot cross the lipid bilayer to reach delF508-CFTR-HRP misfolded within the cell).
The median activity for the lowest concentration of the compounds on each assay plate was calculated and this value was used to normalize the signal for each well on the respective plate. Three replicates at each concentrations for every compound were run to determine one EC50. The median value was determined and used to calculate compound activities as described below. Effective half maximal values (EC50) were calculated for each compound by performing logistic regression on measured dose-response data points using the equation: […]
where “Y” is the observed activity, “Bottom” is the lowest observed value, “Top” is the highest observed value, and the “Hill coefficient” gives the largest absolute value of the slope. The curve fitting is carried out by a curve fitting program implemented at GNF using Matlab (Mathworks). The dose response curves also were used to calculate Fold Change (FC) using the equation: […]
Compound efficacy relative to the reference compound 3-(6-(1-(2,2-difluorobenzo[d][1,3]dioxol-5-yl)cyclopropane-1-carboxamido)-3-methylpyridin-2-yl)benzoic acid was determined using the following formula: […]

For orientation: EC50 means the midpoint of the concentration-response curve. A lower EC50 goes with higher potency in that assay.

T1 sequence (P13569 with tags, fused parts or gaps DEL508-508): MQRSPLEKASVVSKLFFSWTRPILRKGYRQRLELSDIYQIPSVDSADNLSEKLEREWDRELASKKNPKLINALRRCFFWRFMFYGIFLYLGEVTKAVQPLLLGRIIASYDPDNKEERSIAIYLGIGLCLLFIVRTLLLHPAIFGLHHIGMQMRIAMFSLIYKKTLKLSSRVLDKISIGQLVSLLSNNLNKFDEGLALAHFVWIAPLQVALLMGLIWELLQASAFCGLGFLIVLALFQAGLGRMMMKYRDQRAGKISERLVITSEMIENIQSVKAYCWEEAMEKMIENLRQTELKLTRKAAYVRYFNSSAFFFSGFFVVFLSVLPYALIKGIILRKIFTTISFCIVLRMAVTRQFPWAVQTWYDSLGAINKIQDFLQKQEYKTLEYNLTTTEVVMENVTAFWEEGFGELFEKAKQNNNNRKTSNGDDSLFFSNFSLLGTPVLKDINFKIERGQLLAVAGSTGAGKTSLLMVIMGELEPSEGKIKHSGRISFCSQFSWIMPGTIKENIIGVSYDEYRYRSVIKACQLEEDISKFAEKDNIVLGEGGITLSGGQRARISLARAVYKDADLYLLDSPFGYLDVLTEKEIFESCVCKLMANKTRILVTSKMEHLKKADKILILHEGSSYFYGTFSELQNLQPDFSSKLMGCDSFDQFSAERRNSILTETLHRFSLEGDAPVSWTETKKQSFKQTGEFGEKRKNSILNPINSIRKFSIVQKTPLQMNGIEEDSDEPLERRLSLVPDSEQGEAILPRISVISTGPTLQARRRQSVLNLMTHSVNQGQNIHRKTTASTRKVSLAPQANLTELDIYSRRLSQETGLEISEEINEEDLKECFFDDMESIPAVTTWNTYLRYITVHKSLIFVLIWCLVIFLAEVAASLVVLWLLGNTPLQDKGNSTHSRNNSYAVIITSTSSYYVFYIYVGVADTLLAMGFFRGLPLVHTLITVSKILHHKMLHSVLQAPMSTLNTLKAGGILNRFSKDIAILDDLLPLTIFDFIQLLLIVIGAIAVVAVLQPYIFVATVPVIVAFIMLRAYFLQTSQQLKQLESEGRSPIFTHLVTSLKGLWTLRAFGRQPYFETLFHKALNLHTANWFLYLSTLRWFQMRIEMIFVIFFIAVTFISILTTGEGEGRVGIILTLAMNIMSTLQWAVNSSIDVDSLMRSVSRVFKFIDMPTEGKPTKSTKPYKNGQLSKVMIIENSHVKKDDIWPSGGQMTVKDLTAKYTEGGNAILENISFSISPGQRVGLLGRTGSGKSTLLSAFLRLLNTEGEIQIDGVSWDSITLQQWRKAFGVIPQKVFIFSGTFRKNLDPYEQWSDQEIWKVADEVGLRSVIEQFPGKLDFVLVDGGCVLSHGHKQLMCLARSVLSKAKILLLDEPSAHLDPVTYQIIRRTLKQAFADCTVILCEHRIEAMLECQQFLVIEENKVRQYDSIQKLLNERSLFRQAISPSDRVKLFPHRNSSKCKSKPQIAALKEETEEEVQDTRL

Consider `CC(C)(C)OC1CCN(c2ccc(Cl)cc2OC2(C(=O)NS(=O)(=O)c3cccc(N4CC[C@H](O)C4)n3)CC2)C1` (stereo partly drawn) [Example 9-32, 1-(2-(3-(Tert-butoxy)pyrrolidin-1-yl)-5-chlorophenoxy)-N-((6-((S)-3-hydroxypyrrolidin-1-yl)pyridin-2-yl)sulfonyl)cyclopropanecarboxamide], for which the Emax stood at 485% and a half-maximal response (EC50) required 1180 nM.
`Cc1ccc(C2CCC(C)(C)OC2)c(OC2(C(=O)NS(=O)(=O)c3cccc(N4CC[C@H](O)C4)n3)CC2)c1` (single isomer, unassigned) [Example 4-24-2]: the “DelF508-CFTR-HRP Amax %” value is on record as 249% and a half-maximal effect (EC50) was put at 3000 nM.
For `CC1(C)CCN(c2ccc(Cl)cc2OC2(C(=O)NS(=O)(=O)c3cccc(N4CCC(C)(O)C4)n3)CC2)CC1` (single isomer, unassigned) [Example 9-39-2, 1-(5-Chloro-2-(4,4-dimethylpiperidin-1-yl)phenoxy)-N-((6-(3-hydroxy-3-methylpyrrolidin-1-yl)pyridin-2-yl)sulfonyl)cyclopropane-1-carboxamide], the “DelF508-CFTR-HRP Amax %” value is recorded as 493.9% and the midpoint of the response, the EC50, lay at 840 nM.
Regarding `O=C(NS(=O)(=O)c1cccc(N2CC[C@H](O)C2)n1)C1(Oc2cc(C(F)(F)F)ccc2N2CC3(CCC3)C2)CC1` [Example 9-25, (S)-1-(2-(2-Azaspiro[3.3]heptan-2-yl)-5-(trifluoromethyl)phenoxy)-N-((6-(3-hydroxypyrrolidin-1-yl)pyridin-2-yl)sulfonyl)cyclopropanecarboxamide], the Emax was found to be 408% and a half-maximal effect (EC50) was put at 1760 nM.
The like results for `Cc1ccc(N2CCC(C)(C)CC2)c(OC2(C(=O)NS(=O)(=O)c3cccc(N)n3)CC2)c1` [Example 9-44, N-((6-Aminopyridin-2-yl)sulfonyl)-1-(2-(4,4-dimethylpiperidin-1-yl)-5-methylphenoxy)cyclopropane-1-carboxamide] were, in that order, 234% and 1550 nM.
As to `Cc1ccc(C2CCCCC2)c(OC2(C(=O)NS(=O)(=O)c3cccc(N4CCC5(CCCC5N)CC4)n3)CC2)c1` (single isomer, unassigned) [Example 2-32-2, N-((6-(1-Amino-8-azaspiro[4.5]decan-8-yl)pyridin-2-yl)sulfonyl)-1-(2-cyclohexyl-5-methylphenoxy)cyclopropanecarboxamide], the “DelF508-CFTR-HRP Amax %” value worked out at 283% and the EC50 was found to be 1900 nM.
Take `CC1(C)CCN(c2ccc(Cl)cc2OC2(C(=O)NS(=O)(=O)c3cccc(N4CCCC(C)(O)C4)n3)CC2)CC1` (single isomer, unassigned) [Example 9-43-1, 1-(5-Chloro-2-(4,4-dimethylpiperidin-1-yl)phenoxy)-N-((6-(3-hydroxy-3-methylpiperidin-1-yl)pyridin-2-yl)sulfonyl)cyclopropane-1-carboxamide]: the “DelF508-CFTR-HRP Amax %” value came out at 545.9% and the EC50 came out at 1170 nM.
Turning to `O=C(NS(=O)(=O)c1cccc(N2CC[C@@H](O)C2)n1)C1(Oc2cc(Cl)ccc2C2CC3(CCC3)C2)CC1` [Example 7-19, (R)-1-(5-Chloro-2-(spiro[3.3]heptan-2-yl)phenoxy)-N-((6-(3-hydroxypyrrolidin-1-yl)pyridin-2-yl)sulfonyl)cyclopropane-1-carboxamide], the Emax is 350% and the EC50 amounted to 1050 nM.
The like results for `O=C(NS(=O)(=O)c1cccc(N2CC[C@H](O)C2)n1)C1(Oc2cc(Cl)ccc2N2CC3(CCOCC3)C2)CC1` [Example 9-36, (S)-1-(5-Chloro-2-(7-oxa-2-azaspiro[3.5]nonan-2-yl)phenoxy)-N-((6-(3-hydroxypyrrolidin-1-yl)pyridin-2-yl)sulfonyl)cyclopropanecarboxamide] were, in that order, 52% and 1690 nM.
Consider `CC1(C)CCN(c2ccc(C(F)(F)F)cc2OC2(C(=O)NS(=O)(=O)c3cccc(N4CC[C@H](O)C4)n3)CC2)CC1` [Example 9-26, (S)-1-(2-(4,4-Dimethylpiperidin-1-yl)-5-(trifluoromethyl)phenoxy)-N-((6-(3-hydroxypyrrolidin-1-yl)pyridin-2-yl)sulfonyl)cyclopropanecarboxamide], for which the Emax was 329% and the midpoint of the response, the EC50, lay at 1840 nM.
On the same counts, the results for `O=C(NS(=O)(=O)c1cccc(N2CC[C@@H](O)C2)n1)C1(Oc2cc(Cl)ccc2N2CCC3(CC2)CC3)CC1` [Example 9-29, (R)-1-(5-Chloro-2-(6-azaspiro[2.5]octan-6-yl)phenoxy)-N-((6-(3-hydroxypyrrolidin-1-yl)pyridin-2-yl)sulfonyl)cyclopropanecarboxamide] are 691% and 950 nM.
For the compound `CC1(C)CN(c2ccc(Cl)cc2OC2(C(=O)NS(=O)(=O)c3cccc(N4CC[C@H](O)C4)n3)CC2)CC2(CCCC2)O1` [Example 9-33, (S)-1-(5-Chloro-2-(7,7-dimethyl-6-oxa-9-azaspiro[4.5]decan-9-yl)phenoxy)-N-((6-(3-hydroxypyrrolidin-1-yl)pyridin-2-yl)sulfonyl)cyclopropanecarboxamide], the Emax is 265% and the EC50 was 2270 nM.
`CC1(NC(=O)OC(C)(C)C)CCN(c2cccc(S(=O)(=O)NC(=O)C3(Oc4cc(Cl)ccc4C4CC5(CCC5)C4)CC3)n2)CC1` [Example 7-7, Tert-butyl (1-(6-(N-(1-(5-chloro-2-(spiro[3.3]heptan-2-yl)phenoxy)cyclopropanecarbonyl)sulfamoyl)pyridin-2-yl)-4-methylpiperidin-4-yl)carbamate]: the Emax is 357% and the EC50 is 590 nM.
On the same counts, the results for `CC1(C)CCCN(c2ccc(Cl)cc2OC2(C(=O)NS(=O)(=O)c3cccc(N4CCC(O)(C(F)(F)F)CC4)n3)CC2)C1` [Example 10-7, 1-(5-chloro-2-(3,3-dimethylpiperidin-1-yl)phenoxy)-N-((6-(4-hydroxy-4-(trifluoromethyl)piperidin-1-yl)pyridin-2-yl)sulfonyl)cyclopropanecarboxamide] are 604% and 160 nM.
On to `CC1(C)CCN(c2ccc(Cl)cc2OC2(C(=O)NS(=O)(=O)c3cccc(N4CC5CCC(C4)O5)n3)CC2)CC1` [Example 9-40, N-((6-(8-Oxa-3-azabicyclo[3.2.1]octan-3-yl)pyridin-2-yl)sulfonyl)-1-(5-chloro-2-(4,4-dimethylpiperidin-1-yl)phenoxy)cyclopropane-1-carboxamide], for which the Emax is 693% and the EC50 came out at 1510 nM.
On the same counts, the results for `O=C(NS(=O)(=O)c1cccc(N2CC[C@H](O)C2)n1)C1(Oc2cc(Cl)ccc2C2CC3(CCC3)C2)CCCC1` [Example 7-20, (S)-1-(5-Chloro-2-(spiro[3.3]heptan-2-yl)phenoxy)-N-((6-(3-hydroxypyrrolidin-1-yl)pyridin-2-yl)sulfonyl)cyclopentane-1-carboxamide] are 280% and 540 nM.
As to `CC1(C)CCN(c2ccc(Cl)cc2OC2(C(=O)NS(=O)(=O)c3cccc(N4CCN5C(=O)CCC5C4)n3)CC2)CC1` (centres unmarked) [Example 10-10, 1-(8-chloro-2-(4,4-dimethylpiperidin-1-yl)phenoxy)-N-((6-(6-oxohexahydropyrrolo[1,2-a]pyrazin-2(1H)-yl)pyridin-2-yl)sulfonyl)cyclopropanecarboxamide], the Emax is 210% and a half-maximal effect (EC50) was put at 2620 nM.
As for `Cc1ccc(C2CC2C(F)(F)F)c(OC2(C(=O)NS(=O)(=O)c3cccc(N)n3)CC2)c1` (single isomer, unassigned) [Example 1-3-2, N-((6-aminopyridin-2-yl)sulfonyl)-1-(5-methyl-2-(2-(trifluoromethyl)cyclopropyl)phenoxy)cyclopropane-1-carboxamide], the “DelF508-CFTR-HRP Amax %” value worked out at 260% and the EC50 was 2990 nM.
For the compound `CC1(C)CCN(c2ccc(Cl)cc2OC2(C(=O)NS(=O)(=O)c3cccc(N)n3)CC2)CC1` [Example 9-45, N-((6-Aminopyridin-2-yl)sulfonyl)-1-(5-chloro-2-(4,4-dimethylpiperidin-1-yl)phenoxy)cyclopropane-1-carboxamide], the Emax was 189% and the half-maximal effective concentration (EC50) is 2170 nM.

These data come from patent publication US20220033407A1, “N-(pyridin-2-ylsulfonyl)cyclopropanecarboxamide Derivatives and their Use in the Treatment of Disease” (NOVARTIS AG, priority 2018, published 2022).
